Assay results as given in ChEMBL document CHEMBL1201862, “PubChem BioAssay data set” (2004).
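Five compound concentrations were applied to cells in 96-well plates for 48 hours; endpoints were derived by simple linear interpolation of the resulting dose-response curve. Here, GI50 denotes the concentration required for 50% inhibition of growth.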 The source made the active and inactive calls. No stated cut-off is given here; in the data, active = GI50 up to about 1.1 µM and inactive = higher.

Legend:
Test in all cases: DTP human tumour cell line panel, 48 h
[1] = tested on: NCI-H460
[2] = tested on: COLO 205
[3] = tested on: M14
[4] = tested on: SNB-75
[5] = tested on: SR
[6] = tested on: NCI-H23
[7] = tested on: MCF7
[8] = tested on: DU-145
[9] = tested on: OVCAR-8
[10] = tested on: MOLT-4
[11] = tested on: Malme-3M
[12] = tested on: SK-MEL-28
[13] = tested on: A498
[14] = tested on: HCT-116
[15] = tested on: CCRF-CEM
[16] = tested on: LOX IMVI
[17] = tested on: K562
[18] = tested on: SK-OV-3
[19] = tested on: OVCAR-3

Measured: GI50

O=c1c(-c2ccc(Cl)cc2)nnc2n(Cc3ccccc3)c3ccccc3n12
inactive: [1] 33.3 µM | [2] > 100 µM | [3] 43.4 µM | [4] 13 µM | [5] > 100 µM | [6] 37 µM | [7] 60.7 µM | [8] > 100 µM | [9] 45.3 µM | [10] 66.7 µM | [11] 39.8 µM | [12] 51.6 µM | [13] 23 µM | [14] 50.5 µM | [15] > 100 µM | [16] 82.6 µM

O=c1[nH]c2ccc(C(F)(F)F)cc2nc1Cc1ccccc1
inactive: [1] 27.9 µM | [2] 18.1 µM | [3] 29.9 µM | [4] 45.9 µM | [5] > 100 µM | [6] 19.6 µM | [17] 38.5 µM | [7] 28.7 µM | [8] 34.4 µM | [9] 39.5 µM | [10] 16.2 µM | [18] 44.9 µM | [12] 39.7 µM | [13] 26.6 µM | [14] 37.2 µM | [15] 29.4 µM | [16] 40 µM

COc1cccc(N(CN2C(=O)CCC2OC)C(C)=O)c1 (stereo not given)
inactive: [1] > 100 µM | [2] > 100 µM | [3] > 100 µM | [4] > 100 µM | [5] > 100 µM | [6] > 100 µM | [17] > 100 µM | [7] > 100 µM | [8] > 100 µM | [9] > 100 µM | [10] > 100 µM | [18] > 100 µM | [19] > 100 µM | [12] > 100 µM | [13] > 100 µM | [14] > 100 µM | [15] > 100 µM | [16] > 100 µM

COCc1cc2c(cc1/C(=C/[N+](=O)[O-])CS(=O)(=O)c1ccccc1)OCO2
inactive: [1] > 100 µM | [2] > 100 µM | [3] > 100 µM | [4] > 100 µM | [5] > 100 µM | [6] > 100 µM | [17] > 100 µM | [7] > 100 µM | [8] > 100 µM | [9] > 100 µM | [10] > 100 µM | [18] > 100 µM | [19] > 100 µM | [12] > 100 µM | [13] > 100 µM | [14] > 100 µM | [15] > 100 µM | [16] > 100 µM

COc1cc(=O)oc(/C=C/C=C/C=C/C(C)=C\C2(C)OC(C)C(C)(O)C2O)c1C (stereo not given)
inactive: [1] > 100 µM | [2] > 100 µM | [3] > 100 µM | [4] 68.7 µM | [5] > 100 µM | [6] > 100 µM | [17] > 100 µM | [7] > 100 µM | [8] > 100 µM | [9] > 100 µM | [10] > 100 µM | [18] > 100 µM | [19] > 100 µM | [12] > 100 µM | [13] > 100 µM | [14] > 100 µM | [15] > 100 µM | [16] > 100 µM

CCOC(=O)C1(O)C(=O)C2=C3C(=O)OC(C4OC(=O)c5c(c(O)c(O)c(O)c5C31)-c1c(cc(O)c(O)c1O)C(=O)OC1COC(=O)c3cc(O)c(O)c(O)c3-c3c(cc(O)c(O)c3O)C(=O)OC14)[C@@H]2O (stereo not given in full)
inactive: [1] 29.3 µM | [2] 15.7 µM | [3] 21.8 µM | [5] 30.8 µM | [6] 16.3 µM | [17] 20.7 µM | [7] 18.7 µM | [8] 31 µM | [9] 19.8 µM | [10] 22 µM | [18] 61.8 µM | [11] 26.9 µM | [19] 32.6 µM | [12] > 100 µM | [13] > 100 µM | [14] 15.6 µM | [15] 17.2 µM | [16] 15.8 µM

CC(=O)Oc1ccc(-c2cc3ccccc3oc2=O)cc1OC(C)=O
inactive: [1] 22.4 µM | [2] 43.5 µM | [3] 21.6 µM | [4] 26.9 µM | [5] 8.63 µM | [6] 53.2 µM | [17] 27.5 µM | [7] 59.2 µM | [8] 24.9 µM | [9] 24.1 µM | [10] 3.47 µM | [11] 51.4 µM | [12] 43.5 µM | [13] 35.6 µM | [14] 34.7 µM | [15] 5.3 µM | [16] 30.5 µM

CC(C)=CCC(O)[C@](C)(O)[C@H]1[C@H](O)C[C@@]2(C)[C@@H]3CCc4cc(O)c(OC5OC(CO)C(O)C(O)C5O)cc4C3(C)C(=O)C[C@]12C (stereo not given in full)
inactive: [1] > 100 µM | [2] > 100 µM | [3] > 100 µM | [4] > 100 µM | [5] > 100 µM | [6] > 100 µM | [17] > 100 µM | [7] > 100 µM | [8] > 100 µM | [9] > 100 µM | [10] > 100 µM | [18] > 100 µM | [11] > 100 µM | [19] > 100 µM | [12] > 100 µM | [13] > 100 µM | [14] > 100 µM | [15] > 100 µM
